In ChEMBL document CHEMBL3045862, “PRE-CLINICAL AND CLINICAL PHARMACOKINETICS OF THE DIASTEREOMERS OF ARTEETHER, A POTENT ANTIMALARIAL” (Med Chem Res, 2004):

Assays:
[1] = Clearance in Homo sapiens (human) at 150 mg; assay type: ADME, organism-based; conditions: in vivo
[2] = Volume of distribution in Homo sapiens (human) at 150 mg; assay type: ADME, organism-based; conditions: in vivo
[3] = Mean residence time in Homo sapiens (human) at 150 mg; assay type: ADME, organism-based; conditions: in vivo
[4] = Elimination half life in Homo sapiens (human) at 150 mg; assay type: ADME, organism-based; conditions: in vivo, read-out: beta t1/2 (converted)
[5] = AUC (0 to infinity) in Homo sapiens (human) at 150 mg; assay type: ADME, organism-based; design: dose 150 mg, time infinity; conditions: plasma
Homo sapiens = organism: Homo sapiens; assay: Dose normalized AUC in Homo sapiens (human) at 150 mg; assay type: ADME, organism-based; conditions: in vivo
[6] = Tmax in Homo sapiens (human) at 150 mg; assay type: ADME, organism-based; conditions: in vivo
[7] = Cmax in Homo sapiens (human) at 150 mg; assay type: ADME, organism-based; design: dose 150 mg; conditions: in vivo
[8] = Volume of distribution in Macaca mulatta (Rhesus monkey) at 4 mg/kg, iv; assay type: ADME, organism-based; design: dose 4 mg/kg, route intravenous; conditions: in vivo
[9] = Clearance in Macaca mulatta (Rhesus monkey) at 4 mg/kg, iv; assay type: ADME, organism-based; design: dose 4 mg/kg, route intravenous; conditions: in vivo
[10] = Mean residence time in Macaca mulatta (Rhesus monkey) at 4 mg/kg, iv; assay type: ADME, organism-based; design: dose 4 mg/kg, route intravenous; conditions: in vivo
Rhesus monkey [11] = assay: Dose normalized AUC in Macaca mulatta (Rhesus monkey) at 4 mg/kg, iv; assay type: ADME, organism-based; design: dose 4 mg/kg, route intravenous; conditions: in vivo
[12] = Elimination half life in Macaca mulatta (Rhesus monkey) at 4 mg/kg, iv; assay type: ADME, organism-based; design: dose 4 mg/kg, route intravenous; conditions: in vivo, read-out: beta t1/2 (converted)
[13] = AUC (0 to infinity) in Macaca mulatta (Rhesus monkey) at 4 mg/kg, iv; assay type: ADME, organism-based, Plasma; design: time infinity, dose 4 mg/kg, route intravenous; conditions: plasma
Rhesus monkey [14] = assay: Volume of distribution in Macaca mulatta (Rhesus monkey) at 7.5 mg/kg, administered intramuscularly; assay type: ADME, organism-based; design: dose 7.5 mg/kg, route intramuscular; conditions: in vivo, im
[15] = Clearance in Macaca mulatta (Rhesus monkey) at 7.5 mg/kg, administered intramuscularly; assay type: ADME, organism-based; design: dose 7.5 mg/kg, route intramuscular; conditions: in vivo, im
[16] = Mean residence time in Macaca mulatta (Rhesus monkey) at 7.5 mg/kg, administered intramuscularly; assay type: ADME, organism-based; design: dose 7.5 mg/kg, route intramuscular; conditions: in vivo, im
[17] = Elimination half life in Macaca mulatta (Rhesus monkey) at 7.5 mg/kg, administered intramuscularly; assay type: ADME, organism-based; design: dose 7.5 mg/kg, route intramuscular; conditions: in vivo, im, read-out: beta t1/2 (converted)
Rhesus monkey [18] = assay: Dose normalized AUC in Macaca mulatta (Rhesus monkey) at 7.5 mg/kg, administered intramuscularly; assay type: ADME, organism-based; design: dose 7.5 mg/kg, route intramuscular; conditions: in vivo, im
[19] = Tmax in Macaca mulatta (Rhesus monkey) at 7.5 mg/kg, administered intramuscularly; assay type: ADME, organism-based; design: dose 7.5 mg/kg, route intramuscular; conditions: in vivo, im
[20] = AUC (0 to infinity) in Macaca mulatta (Rhesus monkey) at 7.5 mg/kg, administered intramuscularly; assay type: ADME, organism-based, Plasma; design: time infinity, dose 7.5 mg/kg, route intramuscular; conditions: plasma, im
[21] = Cmax in Macaca mulatta (Rhesus monkey) at 7.5 mg/kg, administered intramuscularly; assay type: ADME, organism-based; design: dose 7.5 mg/kg, route intramuscular; conditions: in vivo, im
[22] = Mean residence time in Macaca mulatta (Rhesus monkey) at 50 mg/kg, po; assay type: ADME, organism-based; design: dose 50 mg/kg, route oral; conditions: in vivo
[23] = Elimination half life in Macaca mulatta (Rhesus monkey) at 50 mg/kg, po; assay type: ADME, organism-based; design: dose 50 mg/kg, route oral; conditions: in vivo, read-out: beta t1/2 (converted)
[24] = Elimination half life in Rattus norvegicus Sprague-Dawley (rat) at 30 mg/kg, administered intramuscularly; assay type: ADME, organism-based; design: dose 30 mg/kg, route intramuscular; conditions: in vivo, im, read-out: beta t1/2 (converted)
Rattus norvegicus [25] = assay: Dose normalized AUC in Rattus norvegicus Sprague-Dawley (rat) at 30 mg/kg, administered intramuscularly; assay type: ADME, organism-based; design: dose 30 mg/kg, route intramuscular; conditions: in vivo, im
[26] = Tmax in Rattus norvegicus Sprague-Dawley (rat) at 30 mg/kg, administered intramuscularly; assay type: ADME, organism-based; design: dose 30 mg/kg, route intramuscular; conditions: in vivo, im
[27] = AUC (0 to infinity) in Rattus norvegicus Sprague-Dawley (rat) at 30 mg/kg, administered intramuscularly; assay type: ADME, organism-based, Plasma; design: time infinity, dose 30 mg/kg, route intramuscular; conditions: Sprague-Dawley, plasma, im
[28] = Cmax in Rattus norvegicus Sprague-Dawley (rat) at 30 mg/kg, administered intramuscularly; assay type: ADME, organism-based; design: dose 30 mg/kg, route intramuscular; conditions: in vivo, im
Rattus norvegicus [29] = assay: Volume of distribution in Rattus norvegicus Sprague-Dawley (rat) at 17.5 mg/kg, administered intramuscularly; assay type: ADME, organism-based; design: dose 17.5 mg/kg, route intramuscular; conditions: in vivo, im
[30] = Mean residence time in Rattus norvegicus Sprague-Dawley (rat) at 17.5 mg/kg, administered intramuscularly; assay type: ADME, organism-based; design: dose 17.5 mg/kg, route intramuscular; conditions: in vivo, im
[31] = Clearance in Rattus norvegicus Sprague-Dawley (rat) at 17.5 mg/kg, administered intramuscularly; assay type: ADME, organism-based; design: dose 17.5 mg/kg, route intramuscular; conditions: Sprague-Dawley, in vivo, im
[32] = Elimination half life in Rattus norvegicus Sprague-Dawley (rat) at 17.5 mg/kg, administered intramuscularly; assay type: ADME, organism-based; design: dose 17.5 mg/kg, route intramuscular; conditions: in vivo, im, read-out: beta t1/2 (converted)
Rattus norvegicus [33] = assay: Dose normalized AUC in Rattus norvegicus Sprague-Dawley (rat) at 17.5 mg/kg, administered intramuscularly; assay type: ADME, organism-based; design: dose 17.5 mg/kg, route intramuscular; conditions: in vivo, im
[34] = Tmax in Rattus norvegicus Sprague-Dawley (rat) at 17.5 mg/kg, administered intramuscularly; assay type: ADME, organism-based; design: dose 17.5 mg/kg, route intramuscular; conditions: in vivo, im
[35] = AUC (0 to infinity) in Rattus norvegicus Sprague-Dawley (rat) at 17.5 mg/kg, administered intramuscularly; assay type: ADME, organism-based, Plasma; design: dose 17.5 mg/kg, route intramuscular, time infinity; conditions: Sprague-Dawley, plasma, im
[36] = Cmax in Rattus norvegicus Sprague-Dawley (rat) at 17.5 mg/kg, administered intramuscularly; assay type: ADME, organism-based; design: dose 17.5 mg/kg, route intramuscular; conditions: in vivo, im
Rattus norvegicus [37] = assay: Volume of distribution in Rattus norvegicus Sprague-Dawley (rat) at 9 mg/kg, administered intramuscularly; assay type: ADME, organism-based; design: dose 9 mg/kg, route intramuscular; conditions: in vivo, im
[38] = Mean residence time in Rattus norvegicus Sprague-Dawley (rat) at 9 mg/kg, administered intramuscularly; assay type: ADME, organism-based; design: dose 9 mg/kg, route intramuscular; conditions: in vivo, im
[39] = Clearance in Rattus norvegicus Sprague-Dawley (rat) at 9 mg/kg, administered intramuscularly; assay type: ADME, organism-based; design: dose 9 mg/kg, route intramuscular; conditions: Sprague-Dawley, in vivo, im

## CCO[C@H]1O[C@@H]2O[C@@]3(C)CC[C@H]4[C@H](C)CC[C@@H]([C@H]1C)[C@@]24OO3 [ARTEMOTIL]
[1]
  clearance: 13.3 mL/min/kg
[2]
  Vd: 36.2 L/kg
[3]
  MRT: 47.4 h
[4]
  half-life: 30.2 h
[5]
  AUC(0-inf): 2330 ng·h/mL
Homo sapiens
  AUC/dose: 1315.7 ng·h/mL
[6]
  Tmax: 6.9 min
[7]
  Cmax: 49.8 ng/mL
[8]
  Vd: 8.6 L/kg
[9]
  clearance: 38.3 mL/min/kg
[10]
  MRT: 2.8 h
Rhesus monkey [11]
  AUC/dose: 435.8 ng·h/mL
[12]
  half-life: 2.6 h
[13]
  AUC(0-inf): 1220 ng·h/mL
Rhesus monkey [14]
  Vd: 197.2 L/kg
[15]
  CL/F: 118 mL/min/kg
[16]
  MRT: 26.7 h
[17]
  half-life: 19.1 h
Rhesus monkey [18]
  AUC/dose: 142.2 ng·h/mL
[19]
  Tmax: 1.83 h
[20]
  AUC(0-inf): 746 ng·h/mL
[21]
  Cmax: 45.2 ng/mL
[22]
  MRT: 5.8 h
[23]
  half-life: 4.4 h
[24]
  half-life: 25.2 h
Rattus norvegicus [25]
  AUC/dose: 19.4 ng·h/mL
[26]
  Tmax: 0.167 h
[27]
  AUC(0-inf): 407 ng·h/mL
[28]
  Cmax: 27.8 ng/mL
Rattus norvegicus [29]
  Vd: 198.7 L/kg
[30]
  MRT: 33.2 h
[31]
  CL/F: 83.3 mL/min/kg
[32]
  half-life: 27.5 h
Rattus norvegicus [33]
  AUC/dose: 197.1 ng·h/mL
[34]
  Tmax: 0.5 h
[35]
  AUC(0-inf): 2410 ng·h/mL
[36]
  Cmax: 136 ng/mL
Rattus norvegicus [37]
  Vd: 213.2 L/kg
[38]
  MRT: 40.8 h
[39]
  CL/F: 86.7 mL/min/kg
